Assay results as given in ChEMBL document CHEMBL4622874, “Discovery of ORN0829, a potent dual orexin 1/2 receptor antagonist for the treatment of insomnia” (Bioorg Med Chem, 2020).
Activity calls are given as the source filed them. The rule behind the calls is not given here.

Key:
[1] = Half-life in human at 10 to 80 mg, po administered as single dose; format: ADME, organism-based; conditions: in vivo
[2] = Half-life in human plasma at 40 mg,po administered once daily; format: ADME, cell-free
[3] = biological target: T1, Orexin/Hypocretin receptor type 1 (Homo sapiens, UniProt O43613); test: Antagonist activity at human recombinant OX1R expressed in CHOK1 cells assessed as inhibition of orexin A-induced intracellular Ca2+ release preincubated for 30 mins followed by orexin-A stimulation by Fluo4-AM dye based fluorescence analysis; format: functional, cell-based, CHO-K1
T1 sequence (O43613 whole entry): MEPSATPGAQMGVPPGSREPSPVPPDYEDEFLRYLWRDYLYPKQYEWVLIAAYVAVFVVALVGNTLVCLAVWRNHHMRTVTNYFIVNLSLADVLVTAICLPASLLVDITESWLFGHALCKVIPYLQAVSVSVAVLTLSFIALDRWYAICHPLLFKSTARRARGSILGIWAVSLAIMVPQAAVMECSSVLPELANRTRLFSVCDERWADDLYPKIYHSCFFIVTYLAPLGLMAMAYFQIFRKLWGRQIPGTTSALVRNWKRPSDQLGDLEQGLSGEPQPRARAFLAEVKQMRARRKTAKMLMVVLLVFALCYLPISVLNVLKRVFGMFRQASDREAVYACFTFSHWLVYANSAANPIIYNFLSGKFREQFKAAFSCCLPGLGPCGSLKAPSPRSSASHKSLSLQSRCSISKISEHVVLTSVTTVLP

[4] = biological target: T2, Orexin receptor type 2 (Homo sapiens, UniProt O43614); test: Antagonist activity at human recombinant OX2R expressed in CHOK1 cells assessed as inhibition of orexin A-induced intracellular Ca2+ release preincubated for 30 mins followed by orexin-A stimulation by Fluo-4AM dye based fluorescence analysis; format: functional, cell-based, CHO-K1
T2 sequence (O43614 whole entry): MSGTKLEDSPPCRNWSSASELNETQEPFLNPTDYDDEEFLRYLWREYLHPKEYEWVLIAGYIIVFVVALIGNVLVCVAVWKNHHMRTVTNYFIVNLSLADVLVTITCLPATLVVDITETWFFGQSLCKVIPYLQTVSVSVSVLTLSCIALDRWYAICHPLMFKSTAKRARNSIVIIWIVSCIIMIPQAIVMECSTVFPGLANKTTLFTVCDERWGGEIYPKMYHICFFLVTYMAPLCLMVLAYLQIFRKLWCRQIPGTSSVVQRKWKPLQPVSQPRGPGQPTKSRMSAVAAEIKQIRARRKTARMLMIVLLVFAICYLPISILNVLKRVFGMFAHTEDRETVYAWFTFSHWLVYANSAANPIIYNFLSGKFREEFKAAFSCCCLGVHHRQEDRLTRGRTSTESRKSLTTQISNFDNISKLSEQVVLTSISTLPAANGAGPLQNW

[5] = Lipophilicity, log D of the compound at pH 7.4 by HPLC analysis; format: physicochemical; conditions: buffer
[6] = Half-life in dog at 0.5 mg/kg, iv; format: ADME, organism-based, Canis lupus familiaris; conditions: in vivo
[7] = Half-life in Sprague-Dawley rat at 2 mg/kg, iv; format: ADME, organism-based; conditions: in vivo
[8] = system: Rattus norvegicus; test: Sleep-promoting activity in ip dosed Wistar rat by polysomnography; format: functional; conditions: read-out: MED
[9] = Drug metabolism in human liver microsomes incubated for 15 mins; format: ADME, Microsome; conditions: read-out: Drug metabolism
[10] = biological target: P-gp (ABCB1) (Homo sapiens, UniProt P08183); test: Substrate activity at P-gp (unknown origin) assessed as efflux ratio; format: ADME; conditions: not told
P-gp (ABCB1), sequence (P08183 whole entry): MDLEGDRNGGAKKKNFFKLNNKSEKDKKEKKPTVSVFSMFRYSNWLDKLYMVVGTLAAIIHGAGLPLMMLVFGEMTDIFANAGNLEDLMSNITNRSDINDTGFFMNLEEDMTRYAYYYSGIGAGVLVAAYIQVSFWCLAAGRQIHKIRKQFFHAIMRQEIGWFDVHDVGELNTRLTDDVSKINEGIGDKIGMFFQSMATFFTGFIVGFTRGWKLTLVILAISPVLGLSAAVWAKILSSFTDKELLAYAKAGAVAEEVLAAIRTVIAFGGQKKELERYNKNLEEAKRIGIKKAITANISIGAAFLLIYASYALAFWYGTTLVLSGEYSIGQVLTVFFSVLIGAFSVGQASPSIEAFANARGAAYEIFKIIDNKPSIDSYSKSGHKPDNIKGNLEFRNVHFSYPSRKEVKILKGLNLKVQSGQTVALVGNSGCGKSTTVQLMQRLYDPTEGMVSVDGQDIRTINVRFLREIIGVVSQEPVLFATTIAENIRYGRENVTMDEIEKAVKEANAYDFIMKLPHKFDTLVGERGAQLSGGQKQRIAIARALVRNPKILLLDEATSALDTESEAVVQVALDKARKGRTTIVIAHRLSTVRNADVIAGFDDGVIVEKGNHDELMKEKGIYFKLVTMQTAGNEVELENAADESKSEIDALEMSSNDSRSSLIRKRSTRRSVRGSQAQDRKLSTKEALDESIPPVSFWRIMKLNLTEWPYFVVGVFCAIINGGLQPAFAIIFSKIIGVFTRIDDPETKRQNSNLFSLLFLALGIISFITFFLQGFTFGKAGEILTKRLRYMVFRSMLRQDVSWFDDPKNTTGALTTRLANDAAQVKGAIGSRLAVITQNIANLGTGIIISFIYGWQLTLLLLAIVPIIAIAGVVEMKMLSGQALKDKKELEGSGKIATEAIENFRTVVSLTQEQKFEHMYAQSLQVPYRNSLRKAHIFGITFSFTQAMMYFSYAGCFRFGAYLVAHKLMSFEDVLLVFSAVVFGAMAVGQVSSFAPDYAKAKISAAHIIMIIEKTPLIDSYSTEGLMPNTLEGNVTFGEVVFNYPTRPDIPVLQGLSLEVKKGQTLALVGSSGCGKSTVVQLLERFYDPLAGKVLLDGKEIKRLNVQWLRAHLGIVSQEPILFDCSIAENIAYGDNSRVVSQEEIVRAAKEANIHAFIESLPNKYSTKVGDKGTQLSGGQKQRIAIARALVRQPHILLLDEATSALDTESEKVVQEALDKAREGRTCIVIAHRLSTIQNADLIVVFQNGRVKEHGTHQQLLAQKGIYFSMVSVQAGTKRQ

[11] = Volume of distribution in Sprague-Dawley rat at 1 mg/kg or 2 mg/kg, iv; format: ADME, organism-based; conditions: in vivo
[12] = Volume of distribution in dog at 0.5 mg/kg, iv; format: ADME, organism-based, Canis lupus familiaris; conditions: in vivo
[13] = Clearance in Sprague-Dawley rat at 1 mg/kg or 2 mg/kg, iv; format: ADME, organism-based; conditions: in vivo
[14] = Clearance in dog at 0.5 mg/kg, iv; format: ADME, organism-based, Canis lupus familiaris; conditions: in vivo
[15] = Half-life in Sprague-Dawley rat at 1 mg/kg or 2 mg/kg, iv; format: ADME, organism-based; conditions: in vivo
[16] = Tmax in Sprague-Dawley rat at 3 mg/kg, po; format: ADME, organism-based; conditions: in vivo
[17] = Tmax in dog at 3 mg/kg, po; format: ADME, organism-based, Canis lupus familiaris; conditions: in vivo
[18] = Ratio of drug level in brain to plasma in Sprague-Dawley rat at 3 mg/kg, po; format: ADME, organism-based
[19] = Ratio of drug level in cerebrospinal fluid to plasma in Sprague-Dawley rat at 3 mg/kg, po; format: ADME, organism-based; conditions: csf
[20] = Oral bioavailability in Sprague-Dawley rat at 3 mg/kg; format: ADME, organism-based; conditions: in vivo
[21] = Oral bioavailability in dog at 3 mg/kg; format: ADME, organism-based, Canis lupus familiaris; conditions: in vivo
[22] = Plasma protein binding in Sprague-Dawley rat at 2 ug/mL; format: ADME, cell-free; conditions: read-out: PPB (converted)
[23] = Plasma protein binding in dog at 2 ug/mL; format: ADME, cell-free, Canis lupus familiaris; conditions: read-out: PPB (converted)
[24] = system: Rattus norvegicus; test: Sleep-promoting activity in Wistar rat assessed as fast sleep onset latency at 1 to10 mg/kg, po administered 10 mins prior to the onset of dark period measured every 20s for 2 hrs by polysomnography; format: functional, organism-based
[25] = system: Rattus norvegicus; test: Sleep-promoting activity in po dosed Wistar rat assessed as increase in total sleep administered 10 mins prior to the onset of dark period measured every 20s for 2 hrs by polysomnography; format: functional, organism-based
[26] = biological target: T3, Orexin/Hypocretin receptor type 1 (Rattus norvegicus) (UniProt P56718); test: Antagonist activity at rat recombinant OX1R expressed in CHOK1 cells assessed as inhibition of orexin A-induced intracellular Ca2+ release preincubated for 30 mins followed by orexin-A stimulation by Fluo4-AM dye based fluorescence analysis; format: functional, cell-based; conditions: CHO-K1
T3 sequence (whole entry): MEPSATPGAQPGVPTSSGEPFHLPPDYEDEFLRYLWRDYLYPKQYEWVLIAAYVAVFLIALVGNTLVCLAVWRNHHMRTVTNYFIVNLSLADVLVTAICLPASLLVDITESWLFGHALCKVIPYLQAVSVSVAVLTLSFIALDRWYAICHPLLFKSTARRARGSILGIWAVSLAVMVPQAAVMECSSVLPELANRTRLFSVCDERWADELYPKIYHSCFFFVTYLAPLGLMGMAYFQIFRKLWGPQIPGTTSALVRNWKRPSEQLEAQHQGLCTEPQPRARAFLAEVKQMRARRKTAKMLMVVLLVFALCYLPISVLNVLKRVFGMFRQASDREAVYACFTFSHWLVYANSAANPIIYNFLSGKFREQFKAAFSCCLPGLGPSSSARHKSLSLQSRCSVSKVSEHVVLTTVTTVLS

[27] = biological target: T4, Orexin receptor type 2 (Rattus norvegicus) (UniProt P56719); test: Antagonist activity at rat recombinant OX2R expressed in CHOK1 cells assessed as inhibition of orexin A-induced intracellular Ca2+ release preincubated for 30 mins followed by orexin-A stimulation by Fluo4-AM dye based fluorescence analysis; format: functional, cell-based; conditions: CHO-K1
T4 sequence (whole entry): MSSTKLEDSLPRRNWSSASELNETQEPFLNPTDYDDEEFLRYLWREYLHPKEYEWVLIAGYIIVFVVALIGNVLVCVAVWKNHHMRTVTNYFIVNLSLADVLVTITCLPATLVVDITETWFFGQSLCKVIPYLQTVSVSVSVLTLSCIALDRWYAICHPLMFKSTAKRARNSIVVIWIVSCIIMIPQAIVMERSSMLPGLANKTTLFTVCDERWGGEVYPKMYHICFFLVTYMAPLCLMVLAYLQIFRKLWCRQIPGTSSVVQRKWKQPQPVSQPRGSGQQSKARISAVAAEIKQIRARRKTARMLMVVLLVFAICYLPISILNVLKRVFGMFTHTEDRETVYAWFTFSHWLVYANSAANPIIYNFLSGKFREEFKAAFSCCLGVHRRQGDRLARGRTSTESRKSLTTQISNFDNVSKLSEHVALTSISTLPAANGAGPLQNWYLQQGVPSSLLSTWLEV

[28] = Chemical stability of the compound in JP 1st fluid at pH 1.2 at 37 degC incubated for 24 hrs; format: physicochemical; conditions: buffer, pH 1.2, 24 h
[29] = Drug metabolism in dog liver microsomes incubated for 15 mins; format: ADME, Canis lupus familiaris, Microsome; conditions: read-out: Drug metabolism
[30] = Drug metabolism in rat liver microsomes incubated for 15 mins; format: ADME, Microsome; conditions: read-out: Drug metabolism
[31] = Drug uptake in cerebrospinal fluid in Sprague-Dawley rat at 3 mg/kg, po measured after 1 hr; format: ADME, organism-based; conditions: read-out: Drug uptake
[32] = system: Rattus norvegicus; test: Sleep-promoting activity in po dosed Wistar rat administered 10 mins prior to the onset of dark period measured every 20s for 2 hrs by polysomnography; format: functional; conditions: read-out: MED
[33] = Half-life in human; format: ADME

Cc1cc(C)nc(N2CC3CN(C(=O)c4c(F)cccc4-n4nccn4)CC3C2)n1 (configuration not stated) [SELTOREXANT]
half-life [1]: 2 h

Cc1ccc(-n2nccn2)c(C(=O)N2CCN(c3nc4cc(Cl)ccc4o3)CC[C@H]2C)c1 [SUVOREXANT]
half-life [2]: 12 h

CCN(CCn1ccc(-c2ccc(F)cn2)n1)C(=O)c1ccccc1-n1nccn1
IC50 [3]: 20.6 nM | IC50 [4]: 38.7 nM | logD [5]: 2.53 | half-life [6]: 1.07 h | half-life [7]: 0.412 h | minimal effective dose [8]: 3 mg/kg

Cc1ccc(-n2nccn2)c(C(=O)N2CCCO[C@H]2Cn2ccc(-c3ccc(F)cn3)n2)c1
IC50 [3]: 1.05 nM | IC50 [4]: 1.27 nM | metabolised at 0.25 h [9]: 34.4% | efflux ratio [10]: 2.43 | logD [5]: 2.58 | Vd [11]: 0.853 L/kg | Vd [12]: 0.294 L/kg | clearance [13]: 39.5 mL/min/kg | clearance [14]: 2.65 mL/min/kg | half-life [15]: 0.238 h | half-life [6]: 1.16 h | Tmax [16]: 0.333 h | Tmax [17]: 0.583 h | Ratio [18]: 13.5% | Ratio [19]: 3.1% | bioavailability [20]: 5.5% | bioavailability [21]: 61.6% | fraction unbound at 2 ug/mL [22]: 0.12 | fraction unbound at 2 ug/mL [23]: 0.036 | Activity [24]: Active | Activity [25]: Dose-dependent effect | Kb [26]: 0.44 nM | Kb [27]: 0.8 nM | Stability [28]: Stable | metabolised at 0.25 h [29]: 10.5% | metabolised at 0.25 h [30]: 51% | concentration at 1 h [31]: 2.23 nM | minimal effective dose [32]: 1 mg/kg

COc1ccc(-n2nccn2)c(C(=O)N2CCC[C@@]2(C)c2nc3c(C)c(Cl)ccc3[nH]2)c1 [DARIDOREXANT]
half-life [33]: 6 h
